Reference: patent publication US20110081315A1, “NOVEL MACROCYCLIC INHIBITORS OF HEPATITIS C VIRUS REPLICATION” (INTERMUNE, INC., priority 2009, published 2011)

Key:
[1] = test system: hepatitis C replicon; test: hepatitis C replicon EC50 assay; type: cell-based; details: Hepatitis C virus; hepatitis C replicon; read-out: EC50
Method in brief: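 Buffer: 50 mM Tris-HCl pH 7.5, 15% glycerol, 0.6 mM LDAO, 25 μM NS4A peptide, 10 mM DTT, at 23° C. (ambient). EC50 follows a referenced published replicon protocol.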

[2] = target: NS3/NS4 complexes (Hepatitis C virus genotype 1a, UniProt P27958); test: NS3/NS4 inhibition assay (IC50); type: biochemical; details: NS3/NS4 activity; 23° C., 25 μM NS4A peptide
Sequence of NS3/NS4 complexes (P27958 1027-1657, one chain of several): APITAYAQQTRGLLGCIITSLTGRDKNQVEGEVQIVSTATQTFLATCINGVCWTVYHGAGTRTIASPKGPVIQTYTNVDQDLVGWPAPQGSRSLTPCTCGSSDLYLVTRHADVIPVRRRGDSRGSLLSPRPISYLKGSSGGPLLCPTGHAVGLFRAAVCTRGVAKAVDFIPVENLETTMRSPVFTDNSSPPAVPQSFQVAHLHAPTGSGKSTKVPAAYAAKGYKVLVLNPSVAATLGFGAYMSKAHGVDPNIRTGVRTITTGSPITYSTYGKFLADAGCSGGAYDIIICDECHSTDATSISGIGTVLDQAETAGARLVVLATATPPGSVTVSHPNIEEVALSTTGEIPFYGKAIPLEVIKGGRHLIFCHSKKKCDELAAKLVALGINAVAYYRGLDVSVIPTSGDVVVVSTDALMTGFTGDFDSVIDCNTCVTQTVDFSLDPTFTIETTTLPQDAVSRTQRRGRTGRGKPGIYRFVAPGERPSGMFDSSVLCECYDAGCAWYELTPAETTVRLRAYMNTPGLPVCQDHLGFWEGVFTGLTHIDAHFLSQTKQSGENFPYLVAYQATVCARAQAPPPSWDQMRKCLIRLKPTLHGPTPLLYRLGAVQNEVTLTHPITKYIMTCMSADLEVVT
Method in brief: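 Read-outs are IC50 for inhibition of the NS3/NS4 complex and EC50 in an HCV replicon system. Biochemical runs use 23° C. and a 50 mM Tris-HCl (pH 7.5) buffer with 15% glycerol, 10 mM DTT, 0.6 mM LDAO and 25 μM NS4A peptide.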

SMILES	EC50 [1]	IC50 [2]
CC(C)n1c(O[C@@H]2C[C@H]3C(=O)N[C@]4(C(=O)NS(=O)(=O)C5(C)CC5)C[C@H]4/C=C\CCCCC[C@H](NC(=O)OC(C)(C)C)C(=O)N3C2)nc2c(-c3nc4c(s3)CCC4)cccc21 [Compound 1765]	< 0.01 µM	< 0.01 µM
CC(C)n1c(O[C@@H]2C[C@H]3C(=O)N[C@]4(C(=O)NS(=O)(=O)C5(C)CC5)C[C@H]4/C=C\CCCCC[C@H](NC(=O)OC(C)(C)C)C(=O)N3C2)nc2c(-c3ncco3)cccc21 [Compound 235]	< 0.01 µM	< 0.01 µM
CC(C)n1c(O[C@@H]2C[C@H]3C(=O)N[C@]4(C(=O)NS(=O)(=O)C5(C)CC5)C[C@H]4/C=C\CCCCC[C@H](NC(=O)OC(C)(C)C)C(=O)N3C2)nc2c(-c3nc(-c4ccc(F)cc4)cs3)cccc21 [Compound 1711]	< 0.01 µM	< 0.01 µM
CC(C)n1c(O[C@@H]2C[C@H]3C(=O)N[C@]4(C(=O)NS(=O)(=O)N(C)C)C[C@H]4/C=C\CCCCC[C@H](NC(=O)OC(C)(C)C)C(=O)N3C2)nc2c(-c3nc(-c4ccccc4F)cs3)cccc21 [Compound 1747]	0.01 to 0.1 µM	< 0.01 µM
COc1ccc2c(O[C@@H]3C[C@H]4C(=O)N[C@]5(C(=O)NS(=O)(=O)C6(C)CC6)C[C@H]5/C=C\CCCCC[C@H](Nc5cccc(C(=O)N6CCN(CCO)CC6)c5)C(=O)N4C3)cc(-c3nc(C(C)C)cs3)nc2c1C [Compound 117]	< 0.01 µM	< 0.01 µM
CC(C)n1c(O[C@@H]2C[C@H]3C(=O)N[C@]4(C(=O)NS(=O)(=O)C5(C)CC5)C[C@H]4/C=C\CCCCC[C@H](NC(=O)OC(C)(C)C)C(=O)N3C2)nc2c(-c3nc(Cc4cccc(Cl)c4)cs3)cccc21 [Compound 1724]	0.01 to 0.1 µM	< 0.01 µM
CC(C)n1c(O[C@@H]2C[C@H]3C(=O)N[C@]4(C(=O)NS(=O)(=O)C5(C)CC5)C[C@H]4/C=C\CCCCC[C@H](Nc4ccccc4)C(=O)N3C2)nc2c(-c3ccoc3)cccc21 [Compound 252]	0.01 to 0.1 µM	< 0.01 µM
CN(C)S(=O)(=O)NC(=O)[C@@]12C[C@H]1/C=C\CCCCC[C@H](NC(=O)OC(C)(C)C)C(=O)N1C[C@H](Oc3nc4ccccc4n3C3CC3)C[C@H]1C(=O)N2 [Compound 205]	< 0.01 µM	< 0.01 µM
CNC(=O)c1cccc2c1nc(O[C@@H]1C[C@H]3C(=O)N[C@]4(C(=O)NS(=O)(=O)C5(C)CC5)C[C@H]4/C=C\CCCCC[C@H](Nc4ccccc4)C(=O)N3C1)n2C(C)C [Compound 269]	0.01 to 0.1 µM	< 0.01 µM
CC(C)n1c(O[C@@H]2C[C@H]3C(=O)N[C@]4(C(=O)NS(=O)(=O)N5CCC5)C[C@H]4/C=C\CCCCC[C@H](NC(=O)OC(C)(C)C)C(=O)N3C2)nc2c(-c3nc(C4CCCC4)cs3)cccc21 [Compound 1745]	0.01 to 0.1 µM	< 0.01 µM
Cc1cc(F)cc(-c2cccc3c2nc(O[C@@H]2C[C@H]4C(=O)N[C@]5(C(=O)NS(=O)(=O)C6(C)CC6)C[C@H]5/C=C\CCCCC[C@H](Nc5ccccc5)C(=O)N4C2)n3C(C)C)c1 [Compound 245]	> 0.1 µM	< 0.01 µM
COc1ccc2c(O[C@@H]3C[C@H]4C(=O)N[C@]5(C(=O)NS(=O)(=O)C6(C)CC6)C[C@H]5/C=C\CCCCC[C@H](Nc5ccc(OC(F)(F)F)c(F)c5)C(=O)N4C3)cc(-c3nc(C(C)C)cs3)nc2c1C (single isomer, unassigned) [Compound 602]	0.01 to 0.1 µM	< 0.01 µM
CCOC(=O)N1CCN(C(=O)c2cccc(N[C@H]3CCCCC/C=C\[C@@H]4C[C@@]4(C(=O)NS(=O)(=O)C4(C)CC4)NC(=O)[C@@H]4C[C@@H](Oc5cc(-c6nc(C(C)C)cs6)nc6c(C)c(OC)ccc56)CN4C3=O)c2)CC1 [Compound 108]	< 0.01 µM	< 0.01 µM
CC(C)n1c(O[C@@H]2C[C@H]3C(=O)N[C@]4(C(=O)NS(=O)(=O)N(C)C)C[C@H]4/C=C\CCCCC[C@H](NC(=O)OC(C)(C)C)C(=O)N3C2)nc2ncccc21 [Compound 1780]	0.01 to 0.1 µM	< 0.01 µM
CC(C)n1c(O[C@@H]2C[C@H]3C(=O)N[C@]4(C(=O)NS(=O)(=O)N(C)C)C[C@H]4/C=C\CCCCC[C@H](NC(=O)OC(C)(C)C)C(=O)N3C2)nc2c(-c3csc(N4CCCCC4)n3)cccc21 [Compound 1742]	0.01 to 0.1 µM	< 0.01 µM
CC(C)n1c(O[C@@H]2C[C@H]3C(=O)N[C@]4(C(=O)NS(=O)(=O)N(C)C)C[C@H]4/C=C\CCCCC[C@H](NC(=O)OC(C)(C)C)C(=O)N3C2)nc2c(N)cccc21 [Compound 1419]	< 0.01 µM	< 0.01 µM
CC1(S(=O)(=O)NC(=O)[C@@]23C[C@H]2/C=C\CCCCC[C@H](Nc2ccccc2)C(=O)N2C[C@H](n4nc(Br)c(-c5ccccc5)n4)C[C@H]2C(=O)N3)CC1 [Compound 1505]	> 0.1 µM	< 0.01 µM
CC(C)n1c(O[C@@H]2C[C@H]3C(=O)N[C@]4(C(=O)NS(=O)(=O)C5CC5)C[C@H]4/C=C\CCCCC[C@H](NC(=O)OC(C)(C)C)C(=O)N3C2)nc2c(-c3cc(C(F)(F)F)nn3C)cccc21 [Compound 222]	< 0.01 µM	< 0.01 µM

SMILES	EC50 [1]	IC50 [2]
CC(C)n1c(O[C@@H]2C[C@H]3C(=O)N[C@]4(C(=O)NS(=O)(=O)N(C)C)C[C@H]4/C=C\CCCCC[C@H](NC(=O)OC(C)(C)C)C(=O)N3C2)nc2c(-c3cnc(N4CCOCC4)cn3)cccc21 [Compound 1744]	< 0.01 µM	< 0.01 µM
CC(C)n1c(O[C@@H]2C[C@H]3C(=O)N[C@]4(C(=O)NS(=O)(=O)C5(C)CC5)C[C@H]4/C=C\CCCCC[C@H](NC(=O)OC(C)(C)C)C(=O)N3C2)nc2c(-c3nc(-c4ccc(-c5ccccc5)cc4)cs3)cccc21 [Compound 1716]	0.01 to 0.1 µM	< 0.01 µM
Cc1sc(-c2cccc3c2nc(O[C@@H]2C[C@H]4C(=O)N[C@]5(C(=O)NS(=O)(=O)C6(C)CC6)C[C@H]5/C=C\CCCCC[C@H](NC(=O)OC(C)(C)C)C(=O)N4C2)n3C(C)C)nc1C(C)(C)C [Compound 1208]	0.01 to 0.1 µM	< 0.01 µM
Cc1sc(-c2cccc3c2nc(O[C@@H]2C[C@H]4C(=O)N[C@]5(C(=O)NS(=O)(=O)C6(C)CC6)C[C@H]5/C=C\CCCCC[C@H](NC(=O)OC(C)(C)C)C(=O)N4C2)n3C(C)C)nc1C(C)C [Compound 237]	< 0.01 µM	< 0.01 µM
CC1(S(=O)(=O)NC(=O)[C@@]23C[C@H]2/C=C\CCCCC[C@H](Nc2ccccc2)C(=O)N2C[C@H](n4cc(-c5ccccc5)nn4)C[C@H]2C(=O)N3)CC1 [Compound 1504]	> 0.1 µM	0.01 to 0.1 µM
CCOC(=O)c1nc2ccccc2nc1O[C@@H]1C[C@H]2C(=O)N[C@]3(C(=O)NS(=O)(=O)N(C)C)C[C@H]3/C=C\CCCCC[C@H](NC(=O)OC(C)(C)C)C(=O)N2C1 [Compound 309]	0.01 to 0.1 µM	< 0.01 µM
CC(C)c1csc(NC(=O)c2cccc3c2nc(O[C@@H]2C[C@H]4C(=O)N[C@]5(C(=O)NS(=O)(=O)N(C)C)C[C@H]5/C=C\CCCCC[C@H](NC(=O)OC(C)(C)C)C(=O)N4C2)n3C(C)C)n1 [Compound 1221]	< 0.01 µM	< 0.01 µM
COc1ccc2c(O[C@@H]3C[C@H]4C(=O)N[C@]5(C(=O)NS(=O)(=O)C6(C)CC6)C[C@H]5/C=C\CCCCC[C@H](Nc5cccc(C(=O)N6CCN(C(c7ccccc7)c7ccccc7)CC6)c5)C(=O)N4C3)cc(-c3nc(C(C)C)cs3)nc2c1C [Compound 114]	< 0.01 µM	< 0.01 µM
CC(C)c1cccc2nc(O[C@@H]3C[C@H]4C(=O)N[C@]5(C(=O)NS(=O)(=O)N(C)C)C[C@H]5/C=C\CCCCC[C@H](NC(=O)OC(C)(C)C)C(=O)N4C3)n(C(C)C)c12 [Compound 290]	0.01 to 0.1 µM	< 0.01 µM
Cc1ccccc1-c1csc(-c2cccc3c2nc(O[C@@H]2C[C@H]4C(=O)N[C@]5(C(=O)NS(=O)(=O)N(C)C)C[C@H]5/C=C\CCCCC[C@H](NC(=O)OC(C)(C)C)C(=O)N4C2)n3C(C)C)n1 [Compound 1748]	0.01 to 0.1 µM	< 0.01 µM
CC(C)n1c(O[C@@H]2C[C@H]3C(=O)N[C@]4(C(=O)NS(=O)(=O)C5(C)CC5)C[C@H]4/C=C\CCCCC[C@H](NC(=O)OC(C)(C)C)C(=O)N3C2)nc2c(-c3cncnc3)cccc21 [Compound 1707]	< 0.01 µM	< 0.01 µM
CC(C)n1c(O[C@@H]2C[C@H]3C(=O)N[C@]4(C(=O)NS(=O)(=O)C5(C)CC5)C[C@H]4/C=C\CCCCC[C@H](NC(=O)OC(C)(C)C)C(=O)N3C2)nc2c(-c3nc(-c4ccccc4)cs3)cccc21 [Compound 1708]	< 0.01 µM	< 0.01 µM
CC(C)n1c(O[C@@H]2C[C@H]3C(=O)N[C@]4(C(=O)NS(=O)(=O)N(C)C)C[C@H]4/C=C\CCCCC[C@H](NC(=O)OC(C)(C)C)C(=O)N3C2)nc2c(-c3nc(C4CCCC4)cs3)cccc21 [Compound 293]	0.01 to 0.1 µM	< 0.01 µM
Cc1sc(-c2cccc3c2nc(O[C@@H]2C[C@H]4C(=O)N[C@]5(C(=O)NS(=O)(=O)N(C)C)C[C@H]5/C=C\CCCCC[C@H](NC(=O)OC(C)(C)C)C(=O)N4C2)n3C(C)C)nc1C(C)(C)C [Compound 1207]	0.01 to 0.1 µM	< 0.01 µM
COc1ccc(-c2csc(-c3cccc4c3nc(O[C@@H]3C[C@H]5C(=O)N[C@]6(C(=O)NS(=O)(=O)C7(C)CC7)C[C@H]6/C=C\CCCCC[C@H](NC(=O)OC(C)(C)C)C(=O)N5C3)n4C(C)C)n2)cc1 [Compound 1715]	0.01 to 0.1 µM	< 0.01 µM
CC(C)n1c(O[C@@H]2C[C@H]3C(=O)N[C@]4(C(=O)NS(=O)(=O)C5(C)CC5)C[C@H]4/C=C\CCCCC[C@H](NC(=O)OC(C)(C)C)C(=O)N3C2)nc2c(-c3nc(C4CCC4)cs3)cccc21 [Compound 1771]	< 0.01 µM	< 0.01 µM
CC(C)c1ccc2c(c1)nc(O[C@@H]1C[C@H]3C(=O)N[C@]4(C(=O)NS(=O)(=O)N(C)C)C[C@H]4/C=C\CCCCC[C@H](NC(=O)OC(C)(C)C)C(=O)N3C1)n2C(C)C [Compound 289]	0.01 to 0.1 µM	< 0.01 µM
